Test results taken from the kinase profiling compilation of Christmann-Franck et al. (2016).

What was measured:
Assay in all cases: radiometric filter-binding kinase assay
MAPK9 (human) = MAPK9 (human) (UniProt P45984)
MAPK15 (human) = MAPK15 (human) (UniProt Q8TD08)
AURKB (human) = AURKB (human) (UniProt Q96GD4)
MAP3K1 (human) = MAP3K1 (human) (UniProt Q13233)
CAMKK2 (human) = CAMKK2 (human) (UniProt Q96RR4)
IKBKB (human) = IKBKB (human) (UniProt O14920)
IGF1R (human) = IGF1R (human) (UniProt P08069)
PIM2 (human) = PIM2 (human) (UniProt Q9P1W9)
PHKG1 (human) = PHKG1 (human) (UniProt Q16816)
PRKAA1 or PRKAA2 (rat) = conditions: accession and sequence are those of the human protein
YES1 (human) = YES1 (human) (UniProt P07947)
MAPK10 (human) = MAPK10 (human) (UniProt P53779)
SRC (human) = SRC (human) (UniProt P12931)
[1] = system: AKT2 (human), P31751 [S474D]
MARK2 (human) = MARK2 (human) (UniProt Q7KZI7)
CHEK1 (human) = CHEK1 (human) (UniProt O14757)
CHEK2 (human) = CHEK2 (human) (UniProt O96017)
MAPK1 (human) = MAPK1 (human) (UniProt P28482)
PRKCA (human) = PRKCA (human) (UniProt P17252)
PKN2 (human) = PKN2 (human) (UniProt Q16513)
MAP3K5 (human) = MAP3K5 (human) (UniProt Q99683)
MKNK2 (human) = MKNK2 (human) (UniProt Q9HBH9)
[2] = biological target: STK11 CAB39 STRADA (human) (UniProt Q9Y376+Q7RTN6+Q15831)
NEK2 (human) = NEK2 (human) (UniProt P51955)
RPS6KA1 KD1 KD2 (human) = RPS6KA1 KD1 KD2 (human) (UniProt Q15418)
STK3 (human) = STK3 (human) (UniProt Q13188)
MAPK3 (human) = MAPK3 (human) (UniProt P27361)
MKNK1 (human) = MKNK1 (human) (UniProt Q9BUB5)
MAPKAPK2 (human) = MAPKAPK2 (human) (UniProt P49137)
NTRK1 (human) = NTRK1 (human) (UniProt P04629)
GCK (human) = GCK (human) (UniProt Q12851)
EPHB4 (human) = EPHB4 (human) (UniProt P54760)
PRKACA (human) = PRKACA (human) (UniProt P17612)
MAP2K1 (human) = MAP2K1 (human) (UniProt Q02750)
MINK1 (human) = MINK1 (human) (UniProt Q8N4C8)

Sequence of PKN2 (human) (Q16513 whole entry, looked up): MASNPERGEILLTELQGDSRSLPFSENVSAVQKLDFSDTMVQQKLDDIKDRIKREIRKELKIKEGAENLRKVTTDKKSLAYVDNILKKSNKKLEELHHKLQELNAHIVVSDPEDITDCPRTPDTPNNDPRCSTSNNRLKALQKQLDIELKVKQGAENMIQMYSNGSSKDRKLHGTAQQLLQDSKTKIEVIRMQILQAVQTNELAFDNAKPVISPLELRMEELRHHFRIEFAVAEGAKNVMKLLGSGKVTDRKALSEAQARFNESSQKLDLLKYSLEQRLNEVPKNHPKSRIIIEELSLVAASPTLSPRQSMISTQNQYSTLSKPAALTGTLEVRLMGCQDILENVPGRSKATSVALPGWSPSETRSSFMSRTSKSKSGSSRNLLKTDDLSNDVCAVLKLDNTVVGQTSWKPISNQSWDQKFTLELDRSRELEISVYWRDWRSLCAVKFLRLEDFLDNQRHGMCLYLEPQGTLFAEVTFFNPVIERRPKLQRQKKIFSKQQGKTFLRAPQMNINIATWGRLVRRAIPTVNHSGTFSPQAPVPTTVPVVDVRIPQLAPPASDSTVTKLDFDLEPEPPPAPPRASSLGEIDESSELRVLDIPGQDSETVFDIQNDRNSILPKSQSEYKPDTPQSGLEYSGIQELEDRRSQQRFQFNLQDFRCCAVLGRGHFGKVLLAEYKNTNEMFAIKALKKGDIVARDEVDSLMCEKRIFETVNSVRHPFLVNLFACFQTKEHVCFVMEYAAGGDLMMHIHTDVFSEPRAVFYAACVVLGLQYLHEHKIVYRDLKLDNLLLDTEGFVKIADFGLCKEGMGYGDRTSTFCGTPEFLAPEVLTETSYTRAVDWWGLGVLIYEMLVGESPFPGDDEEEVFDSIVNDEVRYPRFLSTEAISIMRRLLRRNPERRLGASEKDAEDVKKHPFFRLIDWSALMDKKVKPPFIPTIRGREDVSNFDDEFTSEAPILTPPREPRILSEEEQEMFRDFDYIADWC
Sequence of EPHB4 (human) (P54760 whole entry, looked up): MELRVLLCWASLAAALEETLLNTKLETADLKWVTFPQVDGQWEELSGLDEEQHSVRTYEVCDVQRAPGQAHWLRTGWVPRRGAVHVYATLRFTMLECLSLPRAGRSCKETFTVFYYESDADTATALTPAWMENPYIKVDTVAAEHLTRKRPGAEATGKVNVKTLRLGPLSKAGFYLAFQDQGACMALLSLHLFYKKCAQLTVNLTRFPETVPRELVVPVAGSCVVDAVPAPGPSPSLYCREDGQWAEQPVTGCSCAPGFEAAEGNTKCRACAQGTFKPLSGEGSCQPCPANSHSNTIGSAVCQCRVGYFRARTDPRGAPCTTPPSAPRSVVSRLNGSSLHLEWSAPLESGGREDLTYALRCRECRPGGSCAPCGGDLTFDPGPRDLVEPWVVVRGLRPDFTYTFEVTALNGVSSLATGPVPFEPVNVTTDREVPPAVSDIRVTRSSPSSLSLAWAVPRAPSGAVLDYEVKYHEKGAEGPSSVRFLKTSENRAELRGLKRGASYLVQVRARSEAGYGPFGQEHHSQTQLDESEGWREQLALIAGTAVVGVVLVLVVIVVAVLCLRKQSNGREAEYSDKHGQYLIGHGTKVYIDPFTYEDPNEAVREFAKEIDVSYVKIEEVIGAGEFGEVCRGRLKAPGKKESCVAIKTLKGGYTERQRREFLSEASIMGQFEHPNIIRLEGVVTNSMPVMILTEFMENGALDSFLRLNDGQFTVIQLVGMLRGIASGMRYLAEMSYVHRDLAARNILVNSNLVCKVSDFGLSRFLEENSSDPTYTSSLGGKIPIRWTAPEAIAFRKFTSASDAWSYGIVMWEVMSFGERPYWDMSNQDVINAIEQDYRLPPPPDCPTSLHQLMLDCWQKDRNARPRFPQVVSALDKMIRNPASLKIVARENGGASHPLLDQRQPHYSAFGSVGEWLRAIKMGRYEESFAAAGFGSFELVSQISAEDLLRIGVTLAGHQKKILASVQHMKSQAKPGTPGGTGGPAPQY
Sequence of MAPK10 (human) (P53779 whole entry, looked up): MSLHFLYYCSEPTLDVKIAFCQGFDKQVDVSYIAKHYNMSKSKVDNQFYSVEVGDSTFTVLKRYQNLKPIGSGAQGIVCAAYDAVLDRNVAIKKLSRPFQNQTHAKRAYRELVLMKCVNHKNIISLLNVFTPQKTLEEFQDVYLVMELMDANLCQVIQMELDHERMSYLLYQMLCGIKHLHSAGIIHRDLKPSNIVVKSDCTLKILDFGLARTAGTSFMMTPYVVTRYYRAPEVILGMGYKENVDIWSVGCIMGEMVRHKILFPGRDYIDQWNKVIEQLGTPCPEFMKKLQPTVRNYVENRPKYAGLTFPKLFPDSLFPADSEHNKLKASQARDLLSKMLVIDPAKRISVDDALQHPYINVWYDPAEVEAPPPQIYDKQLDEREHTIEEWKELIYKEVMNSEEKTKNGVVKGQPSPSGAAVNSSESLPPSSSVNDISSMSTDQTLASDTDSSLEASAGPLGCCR
Sequence of MAP3K1 (human) (Q13233 whole entry, looked up): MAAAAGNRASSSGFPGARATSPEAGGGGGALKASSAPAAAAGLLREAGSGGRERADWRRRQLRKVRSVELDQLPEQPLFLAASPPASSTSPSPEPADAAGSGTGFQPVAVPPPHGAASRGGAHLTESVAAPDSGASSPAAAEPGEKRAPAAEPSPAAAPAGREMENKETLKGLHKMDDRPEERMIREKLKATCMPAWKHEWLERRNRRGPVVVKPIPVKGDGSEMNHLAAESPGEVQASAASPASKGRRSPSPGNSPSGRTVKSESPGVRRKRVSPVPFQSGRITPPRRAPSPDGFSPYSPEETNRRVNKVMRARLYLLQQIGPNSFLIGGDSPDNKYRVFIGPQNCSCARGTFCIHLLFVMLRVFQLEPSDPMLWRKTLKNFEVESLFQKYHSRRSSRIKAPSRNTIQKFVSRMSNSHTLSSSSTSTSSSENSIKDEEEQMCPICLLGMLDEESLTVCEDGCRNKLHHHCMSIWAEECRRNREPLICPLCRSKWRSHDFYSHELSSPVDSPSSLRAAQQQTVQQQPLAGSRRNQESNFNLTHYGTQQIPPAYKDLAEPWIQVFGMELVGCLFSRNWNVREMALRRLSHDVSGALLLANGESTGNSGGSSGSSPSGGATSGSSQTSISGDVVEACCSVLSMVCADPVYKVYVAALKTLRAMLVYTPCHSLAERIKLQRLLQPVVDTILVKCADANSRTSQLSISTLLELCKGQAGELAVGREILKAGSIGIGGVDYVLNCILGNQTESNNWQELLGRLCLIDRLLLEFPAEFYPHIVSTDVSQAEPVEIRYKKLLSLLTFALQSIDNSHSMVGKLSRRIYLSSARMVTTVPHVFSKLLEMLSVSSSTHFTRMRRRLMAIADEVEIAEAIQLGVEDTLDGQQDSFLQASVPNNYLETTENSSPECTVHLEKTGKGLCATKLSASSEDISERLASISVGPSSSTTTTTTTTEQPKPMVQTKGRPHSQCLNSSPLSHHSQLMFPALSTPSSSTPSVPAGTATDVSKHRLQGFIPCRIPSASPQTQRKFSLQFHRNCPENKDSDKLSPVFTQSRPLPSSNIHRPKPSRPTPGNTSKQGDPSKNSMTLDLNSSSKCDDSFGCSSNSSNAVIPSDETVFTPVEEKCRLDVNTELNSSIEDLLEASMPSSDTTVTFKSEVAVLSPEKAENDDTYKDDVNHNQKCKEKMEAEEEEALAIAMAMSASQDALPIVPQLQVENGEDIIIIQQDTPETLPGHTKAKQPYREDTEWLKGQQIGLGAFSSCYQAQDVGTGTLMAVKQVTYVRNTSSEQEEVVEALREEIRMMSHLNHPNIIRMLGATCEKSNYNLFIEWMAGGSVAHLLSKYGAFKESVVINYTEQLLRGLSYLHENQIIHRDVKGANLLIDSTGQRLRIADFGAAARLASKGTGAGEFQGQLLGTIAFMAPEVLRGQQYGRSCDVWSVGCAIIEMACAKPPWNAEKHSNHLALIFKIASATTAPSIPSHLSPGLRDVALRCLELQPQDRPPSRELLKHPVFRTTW
Sequence of RPS6KA1 KD1 KD2 (human) (Q15418 whole entry, looked up): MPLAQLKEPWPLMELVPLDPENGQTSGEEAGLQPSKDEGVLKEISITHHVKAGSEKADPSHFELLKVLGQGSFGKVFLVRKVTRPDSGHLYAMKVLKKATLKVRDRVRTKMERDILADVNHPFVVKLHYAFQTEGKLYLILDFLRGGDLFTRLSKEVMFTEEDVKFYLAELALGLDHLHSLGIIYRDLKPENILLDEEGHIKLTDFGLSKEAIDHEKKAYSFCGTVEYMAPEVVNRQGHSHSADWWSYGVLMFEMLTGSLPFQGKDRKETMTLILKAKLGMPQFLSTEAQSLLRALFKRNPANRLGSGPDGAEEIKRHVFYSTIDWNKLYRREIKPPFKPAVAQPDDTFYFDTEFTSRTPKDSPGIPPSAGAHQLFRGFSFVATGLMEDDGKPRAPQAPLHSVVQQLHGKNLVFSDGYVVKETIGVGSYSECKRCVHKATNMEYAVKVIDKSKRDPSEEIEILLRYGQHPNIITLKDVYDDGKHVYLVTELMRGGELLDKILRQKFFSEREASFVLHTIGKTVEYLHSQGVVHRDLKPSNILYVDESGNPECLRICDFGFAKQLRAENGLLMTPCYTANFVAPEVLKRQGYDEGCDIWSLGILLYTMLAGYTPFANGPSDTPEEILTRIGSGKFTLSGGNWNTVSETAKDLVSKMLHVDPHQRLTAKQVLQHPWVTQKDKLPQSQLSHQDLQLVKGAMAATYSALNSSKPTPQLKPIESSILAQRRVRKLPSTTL
Sequence of MAPK1 (human) (P28482 whole entry, looked up): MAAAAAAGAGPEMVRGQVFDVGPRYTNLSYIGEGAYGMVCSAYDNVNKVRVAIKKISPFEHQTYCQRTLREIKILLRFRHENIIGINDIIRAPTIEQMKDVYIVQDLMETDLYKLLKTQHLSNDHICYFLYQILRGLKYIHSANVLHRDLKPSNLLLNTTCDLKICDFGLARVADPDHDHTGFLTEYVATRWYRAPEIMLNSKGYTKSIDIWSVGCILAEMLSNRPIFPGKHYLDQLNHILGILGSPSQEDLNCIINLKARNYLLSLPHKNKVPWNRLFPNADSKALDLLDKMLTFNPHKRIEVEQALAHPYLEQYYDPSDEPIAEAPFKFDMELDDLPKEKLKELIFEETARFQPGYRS

## c1ccc2c(-c3cnn4cc(-c5ccc(N6CCNCC6)cc5)cnc34)ccnc2c1
MAPK9 (human); compound 0.1 µM
  residual activity: 88%
MAPK9 (human); compound 1.0 µM
  residual activity: 103%
MAPK9 (human); compound 10.0 µM
  residual activity: 83%
MAPK15 (human); compound 0.1 µM
  residual activity: 87%
MAPK15 (human); compound 1.0 µM
  residual activity: 49%
MAPK15 (human); compound 10.0 µM
  residual activity: 11%
AURKB (human); compound 0.1 µM
  residual activity: 95%
AURKB (human); compound 1.0 µM
  residual activity: 76%
AURKB (human); compound 10.0 µM
  residual activity: 47%
MAP3K1 (human); compound 0.1 µM
  residual activity: 90%
MAP3K1 (human); compound 1.0 µM
  residual activity: 83%
MAP3K1 (human); compound 10.0 µM
  residual activity: 60%
CAMKK2 (human); compound 0.1 µM
  residual activity: 43%
CAMKK2 (human); compound 1.0 µM
  residual activity: 13%
CAMKK2 (human); compound 10.0 µM
  residual activity: 8%
IKBKB (human); compound 1.0 µM
  residual activity: 98%
IKBKB (human); compound 10.0 µM
  residual activity: 83%
IGF1R (human); compound 0.1 µM
  residual activity: 112%
IGF1R (human); compound 1.0 µM
  residual activity: 99%
IGF1R (human); compound 10.0 µM
  residual activity: 89%
PIM2 (human); compound 0.1 µM
  residual activity: 98%
PIM2 (human); compound 1.0 µM
  residual activity: 104%
PIM2 (human); compound 10.0 µM
  residual activity: 92%
PHKG1 (human); compound 0.1 µM
  residual activity: 85%
PHKG1 (human); compound 1.0 µM
  residual activity: 60%
PHKG1 (human); compound 10.0 µM
  residual activity: 21%
PRKAA1 or PRKAA2 (rat); compound 0.1 µM
  residual activity: 96%
PRKAA1 or PRKAA2 (rat); compound 1.0 µM
  residual activity: 59%
PRKAA1 or PRKAA2 (rat); compound 10.0 µM
  residual activity: 18%
YES1 (human); compound 0.1 µM
  residual activity: 73%
YES1 (human); compound 1.0 µM
  residual activity: 21%
YES1 (human); compound 10.0 µM
  residual activity: 7%
MAPK10 (human); compound 0.1 µM
  residual activity: 98%
MAPK10 (human); compound 1.0 µM
  residual activity: 97%
MAPK10 (human); compound 10.0 µM
  residual activity: 94%
SRC (human); compound 1.0 µM
  residual activity: 52%
SRC (human); compound 10.0 µM
  residual activity: 16%
[1]; compound 0.1 µM
  residual activity: 77%
[1]; compound 1.0 µM
  residual activity: 91%
[1]; compound 10.0 µM
  residual activity: 58%
MARK2 (human); compound 0.1 µM
  residual activity: 76%
MARK2 (human); compound 1.0 µM
  residual activity: 63%
MARK2 (human); compound 10.0 µM
  residual activity: 32%
CHEK1 (human); compound 0.1 µM
  residual activity: 101%
CHEK1 (human); compound 1.0 µM
  residual activity: 109%
CHEK1 (human); compound 10.0 µM
  residual activity: 96%
CHEK2 (human); compound 0.1 µM
  residual activity: 99%
CHEK2 (human); compound 1.0 µM
  residual activity: 103%
CHEK2 (human); compound 10.0 µM
  residual activity: 59%
MAPK1 (human); compound 0.1 µM
  residual activity: 89%
MAPK1 (human); compound 1.0 µM
  residual activity: 89%
MAPK1 (human); compound 10.0 µM
  residual activity: 107%
PRKCA (human); compound 0.1 µM
  residual activity: 92%
PRKCA (human); compound 1.0 µM
  residual activity: 96%
PRKCA (human); compound 10.0 µM
  residual activity: 88%
PKN2 (human); compound 0.1 µM
  residual activity: 65%
PKN2 (human); compound 1.0 µM
  residual activity: 69%
PKN2 (human); compound 10.0 µM
  residual activity: 37%
MAP3K5 (human); compound 0.1 µM
  residual activity: 93%
MAP3K5 (human); compound 1.0 µM
  residual activity: 90%
MAP3K5 (human); compound 10.0 µM
  residual activity: 91%
MKNK2 (human); compound 0.1 µM
  residual activity: 90%
MKNK2 (human); compound 1.0 µM
  residual activity: 60%
MKNK2 (human); compound 10.0 µM
  residual activity: 34%
[2]; compound 0.1 µM
  residual activity: 109%
[2]; compound 1.0 µM
  residual activity: 98%
[2]; compound 10.0 µM
  residual activity: 80%
NEK2 (human); compound 0.1 µM
  residual activity: 118%
NEK2 (human); compound 1.0 µM
  residual activity: 119%
NEK2 (human); compound 10.0 µM
  residual activity: 79%
RPS6KA1 KD1 KD2 (human); compound 0.1 µM
  residual activity: 86%
RPS6KA1 KD1 KD2 (human); compound 1.0 µM
  residual activity: 79%
RPS6KA1 KD1 KD2 (human); compound 10.0 µM
  residual activity: 29%
STK3 (human); compound 0.1 µM
  residual activity: 102%
STK3 (human); compound 1.0 µM
  residual activity: 104%
STK3 (human); compound 10.0 µM
  residual activity: 76%
MAPK3 (human); compound 0.1 µM
  residual activity: 89%
MAPK3 (human); compound 1.0 µM
  residual activity: 97%
MAPK3 (human); compound 10.0 µM
  residual activity: 90%
MKNK1 (human); compound 0.1 µM
  residual activity: 82%
MKNK1 (human); compound 1.0 µM
  residual activity: 63%
MKNK1 (human); compound 10.0 µM
  residual activity: 39%
MAPKAPK2 (human); compound 0.1 µM
  residual activity: 81%
MAPKAPK2 (human); compound 1.0 µM
  residual activity: 91%
MAPKAPK2 (human); compound 10.0 µM
  residual activity: 73%
NTRK1 (human); compound 0.1 µM
  residual activity: 87%
NTRK1 (human); compound 1.0 µM
  residual activity: 71%
NTRK1 (human); compound 10.0 µM
  residual activity: 38%
GCK (human); compound 0.1 µM
  residual activity: 37%
GCK (human); compound 1.0 µM
  residual activity: 11%
GCK (human); compound 10.0 µM
  residual activity: 3%
EPHB4 (human); compound 0.1 µM
  residual activity: 96%
EPHB4 (human); compound 1.0 µM
  residual activity: 89%
EPHB4 (human); compound 10.0 µM
  residual activity: 46%
PRKACA (human); compound 0.1 µM
  residual activity: 99%
PRKACA (human); compound 1.0 µM
  residual activity: 101%
PRKACA (human); compound 10.0 µM
  residual activity: 94%
MAP2K1 (human); compound 0.1 µM
  residual activity: 98%
MAP2K1 (human); compound 1.0 µM
  residual activity: 93%
MAP2K1 (human); compound 10.0 µM
  residual activity: 67%
MINK1 (human); compound 0.1 µM
  residual activity: 74%
MINK1 (human); compound 1.0 µM
  residual activity: 15%
MINK1 (human); compound 10.0 µM
  residual activity: 4%
